{
  "source": "patent US4971965A",
  "about": "“Antibiotics TAN-1057” (Takeda Chemical Industries, Ltd., priority 1988, dated 1990)",
  "key": {"Solubility": {"assay": "Solubility", "format": "physicochemical"}, "Acidity or basicity": {"assay": "Acidity or basicity", "format": "physicochemical"}, "[1]": {"test_system": "Staphylococcus aureus N176-3", "assay": "Antibacterial activity against clinically isolated S. aureus (agar dilution MIC, Table 2)", "format": "cell-based", "details": "Staphylococcus aureus, N1763", "procedure": "(§1) DMPPC: Methicillin, KM: Kanamycin, GM: Gentamycin, EM: Erythromycin (Note\n(§2) Determined by the agar dilution method. Medium: Mueller Hinton medium\n(§3) (Difco, USA) Inoculum Size: 10^6 CFU/ml, 37° C."}, "[2]": {"test_system": "Staphylococcus aureus N247-21", "assay": "Antibacterial activity against clinically isolated S. aureus (agar dilution MIC, Table 2)", "format": "cell-based", "details": "Staphylococcus aureus, N24721", "procedure": "as §1, §2, §3"}, "[3]": {"test_system": "Staphylococcus aureus N28", "assay": "Antibacterial activity against clinically isolated S. aureus (agar dilution MIC, Table 2)", "format": "cell-based", "details": "Staphylococcus aureus, N28", "procedure": "as §1, §2, §3"}, "[4]": {"test_system": "Staphylococcus aureus FDA 209P", "assay": "Antibacterial activity against clinically isolated S. aureus (agar dilution MIC, Table 2)", "format": "cell-based", "details": "Staphylococcus aureus, FDA209P", "procedure": "as §1, §2, §3"}, "[5]": {"test_system": "Staphylococcus aureus N267", "assay": "Antibacterial activity against clinically isolated S. aureus (agar dilution MIC, Table 2)", "format": "cell-based", "details": "Staphylococcus aureus, N267", "procedure": "as §1, §2, §3"}, "Staphylococcus aureus C4": {"test_system": "Staphylococcus aureus C4", "assay": "Antibacterial activity against clinically isolated S. aureus (agar dilution MIC, Table 2)", "format": "cell-based", "details": "Staphylococcus aureus, C4", "procedure": "as §1, §2, §3"}, "[6]": {"test_system": "Staphylococcus aureus TS-65", "assay": "Antibacterial activity against clinically isolated S. aureus (agar dilution MIC, Table 2)", "format": "cell-based", "details": "Staphylococcus aureus, TS65", "procedure": "as §1, §2, §3"}, "[7]": {"test_system": "Staphylococcus aureus N235", "assay": "Antibacterial activity against clinically isolated S. aureus (agar dilution MIC, Table 2)", "format": "cell-based", "details": "Staphylococcus aureus, N235", "procedure": "as §1, §2, §3"}, "[8]": {"test_system": "Staphylococcus aureus N247-16", "assay": "Antibacterial activity against clinically isolated S. aureus (agar dilution MIC, Table 2)", "format": "cell-based", "details": "Staphylococcus aureus, N24716", "procedure": "as §1, §2, §3"}, "[9]": {"test_system": "Staphylococcus aureus N64", "assay": "Antibacterial activity against clinically isolated S. aureus (agar dilution MIC, Table 2)", "format": "cell-based", "details": "Staphylococcus aureus, N64", "procedure": "as §1, §2, §3"}, "Staphylococcus aureus C7": {"test_system": "Staphylococcus aureus C7", "assay": "Antibacterial activity against clinically isolated S. aureus (agar dilution MIC, Table 2)", "format": "cell-based", "details": "Staphylococcus aureus, C7", "procedure": "as §1, §2, §3"}, "[10]": {"test_system": "Staphylococcus aureus N129", "assay": "Antibacterial activity against clinically isolated S. aureus (agar dilution MIC, Table 2)", "format": "cell-based", "details": "Staphylococcus aureus, N129", "procedure": "as §1, §2, §3"}, "Staphylococcus aureus N8": {"test_system": "Staphylococcus aureus N8", "assay": "Antibacterial activity against clinically isolated S. aureus (agar dilution MIC, Table 2)", "format": "cell-based", "details": "Staphylococcus aureus, N8", "procedure": "as §1, §2, §3"}, "[11]": {"test_system": "Staphylococcus aureus N91", "assay": "Antibacterial activity against clinically isolated S. aureus (agar dilution MIC, Table 2)", "format": "cell-based", "details": "Staphylococcus aureus, N91", "procedure": "as §1, §2, §3"}, "[12]": {"test_system": "Staphylococcus aureus N62", "assay": "Antibacterial activity against clinically isolated S. aureus (agar dilution MIC, Table 2)", "format": "cell-based", "details": "Staphylococcus aureus, N62", "procedure": "as §1, §2, §3"}, "[13]": {"test_system": "Staphylococcus aureus N83", "assay": "Antibacterial activity against clinically isolated S. aureus (agar dilution MIC, Table 2)", "format": "cell-based", "details": "Staphylococcus aureus, N83", "procedure": "as §1, §2, §3"}, "[14]": {"test_system": "Staphylococcus aureus N262", "assay": "Antibacterial activity against clinically isolated S. aureus (agar dilution MIC, Table 2)", "format": "cell-based", "details": "Staphylococcus aureus, N262", "procedure": "as §1, §2, §3"}, "[15]": {"test_system": "Staphylococcus aureus N176", "assay": "Antibacterial activity against clinically isolated S. aureus (agar dilution MIC, Table 2)", "format": "cell-based", "details": "Staphylococcus aureus, N176", "procedure": "as §1, §2, §3"}, "Staphylococcus aureus C3": {"test_system": "Staphylococcus aureus C3", "assay": "Antibacterial activity against clinically isolated S. aureus (agar dilution MIC, Table 2)", "format": "cell-based", "details": "Staphylococcus aureus, C3", "procedure": "as §1, §2, §3"}, "[16]": {"test_system": "Staphylococcus aureus N326", "assay": "Antibacterial activity against clinically isolated S. aureus (agar dilution MIC, Table 2)", "format": "cell-based", "details": "Staphylococcus aureus, N326", "procedure": "as §1, §2, §3"}, "[17]": {"test_system": "Staphylococcus aureus TST-75", "assay": "Antibacterial activity against clinically isolated S. aureus (agar dilution MIC, Table 2)", "format": "cell-based", "details": "Staphylococcus aureus, TST75", "procedure": "as §1, §2, §3"}, "[18]": {"test_system": "Staphylococcus aureus N51", "assay": "Antibacterial activity against clinically isolated S. aureus (agar dilution MIC, Table 2)", "format": "cell-based", "details": "Staphylococcus aureus, N51", "procedure": "as §1, §2, §3"}, "[19]": {"test_system": "Staphylococcus aureus N247", "assay": "Antibacterial activity against clinically isolated S. aureus (agar dilution MIC, Table 2)", "format": "cell-based", "details": "Staphylococcus aureus, N247", "procedure": "as §1, §2, §3"}, "[20]": {"test_system": "Staphylococcus aureus C10", "assay": "Antibacterial activity against clinically isolated S. aureus (agar dilution MIC, Table 2)", "format": "cell-based", "details": "Staphylococcus aureus, C10", "procedure": "as §1, §2, §3"}, "[21]": {"test_system": "Staphylococcus aureus N237", "assay": "Antibacterial activity against clinically isolated S. aureus (agar dilution MIC, Table 2)", "format": "cell-based", "details": "Staphylococcus aureus, N237", "procedure": "as §1, §2, §3"}, "[22]": {"test_system": "Staphylococcus aureus N121", "assay": "Antibacterial activity against clinically isolated S. aureus (agar dilution MIC, Table 2)", "format": "cell-based", "details": "Staphylococcus aureus, N121", "procedure": "as §1, §2, §3"}, "[23]": {"test_system": "Staphylococcus aureus N176-6", "assay": "Antibacterial activity against clinically isolated S. aureus (agar dilution MIC, Table 2)", "format": "cell-based", "details": "Staphylococcus aureus, N1766", "procedure": "as §1, §2, §3"}},
  "note": "Counter-ions that a name gives are not always drawn.",
  "data": [
    {"smiles": "CN(C(=O)C[C@@H](N)CCCNC(=N)N)[C@@H]1CNC(NC(N)=O)=NC1=O", "note": "[TAN-1057B dihydrochloride]", "values": [
      {"measurement": "Solubility", "setting": "Solubility; acetone", "result": "Sparingly soluble"},
      {"measurement": "Solubility", "setting": "Solubility; diethyl ether", "result": "Sparingly soluble"},
      {"measurement": "Solubility", "setting": "Solubility; dimethylsulfoxide", "result": "Soluble"},
      {"measurement": "Solubility", "setting": "Solubility; ethyl acetate", "result": "Sparingly soluble"},
      {"measurement": "Solubility", "setting": "Solubility; methanol", "result": "Soluble"},
      {"measurement": "Solubility", "setting": "Solubility; water", "result": "Readily soluble"},
      {"measurement": "Acidity or basicity", "setting": "Acidity or basicity", "result": "neutral"}
    ]},
    {"smiles": "CN1C(=O)C[C@H](CCCNC(=N)N)NC(=O)[C@@H]1CNC(=N)NC(N)=O", "note": "[TAN-1057D dihydrochloride]", "values": [
      {"measurement": "Solubility", "setting": "Solubility; acetone", "result": "Sparingly soluble"},
      {"measurement": "Solubility", "setting": "Solubility; diethyl ether", "result": "Sparingly soluble"},
      {"measurement": "Solubility", "setting": "Solubility; dimethylsulfoxide", "result": "Soluble"},
      {"measurement": "Solubility", "setting": "Solubility; ethyl acetate", "result": "Sparingly soluble"},
      {"measurement": "Solubility", "setting": "Solubility; methanol", "result": "Soluble"},
      {"measurement": "Solubility", "setting": "Solubility; water", "result": "Readily soluble"},
      {"measurement": "Acidity or basicity", "setting": "Acidity or basicity", "result": "neutral"}
    ]},
    {"smiles": "CC[C@H]1OC(=O)[C@H](C)[C@@H](O[C@H]2C[C@@](C)(OC)[C@@H](O)[C@H](C)O2)[C@H](C)[C@@H](O[C@@H]2O[C@H](C)C[C@H](N(C)C)[C@H]2O)[C@](C)(O)C[C@@H](C)C(=O)[C@H](C)[C@@H](O)[C@]1(C)O", "note": "[EM, Erythromycin]", "values": [
      {"measurement": "MIC", "setting": "[1]", "result": "> 100", "unit": "µg/mL"},
      {"measurement": "MIC", "setting": "[2]", "result": 6.25, "unit": "µg/mL"},
      {"measurement": "MIC", "setting": "[3]", "result": "> 100", "unit": "µg/mL"},
      {"measurement": "MIC", "setting": "[4]", "result": 0.39, "unit": "µg/mL"},
      {"measurement": "MIC", "setting": "[5]", "result": "> 100", "unit": "µg/mL"},
      {"measurement": "MIC", "setting": "Staphylococcus aureus C4", "result": 0.39, "unit": "µg/mL"},
      {"measurement": "MIC", "setting": "[6]", "result": "> 100", "unit": "µg/mL"},
      {"measurement": "MIC", "setting": "[7]", "result": "> 100", "unit": "µg/mL"},
      {"measurement": "MIC", "setting": "[8]", "result": 3.13, "unit": "µg/mL"},
      {"measurement": "MIC", "setting": "[9]", "result": "> 100", "unit": "µg/mL"},
      {"measurement": "MIC", "setting": "Staphylococcus aureus C7", "result": 12.5, "unit": "µg/mL"},
      {"measurement": "MIC", "setting": "[10]", "result": 0.39, "unit": "µg/mL"},
      {"measurement": "MIC", "setting": "Staphylococcus aureus N8", "result": "> 100", "unit": "µg/mL"},
      {"measurement": "MIC", "setting": "[11]", "result": 0.39, "unit": "µg/mL"},
      {"measurement": "MIC", "setting": "[12]", "result": "> 100", "unit": "µg/mL"},
      {"measurement": "MIC", "setting": "[13]", "result": "> 100", "unit": "µg/mL"},
      {"measurement": "MIC", "setting": "[14]", "result": "> 100", "unit": "µg/mL"},
      {"measurement": "MIC", "setting": "[15]", "result": "> 100", "unit": "µg/mL"},
      {"measurement": "MIC", "setting": "Staphylococcus aureus C3", "result": "> 100", "unit": "µg/mL"},
      {"measurement": "MIC", "setting": "[16]", "result": "> 100", "unit": "µg/mL"},
      {"measurement": "MIC", "setting": "[17]", "result": "> 100", "unit": "µg/mL"},
      {"measurement": "MIC", "setting": "[18]", "result": 0.39, "unit": "µg/mL"},
      {"measurement": "MIC", "setting": "[19]", "result": 6.25, "unit": "µg/mL"},
      {"measurement": "MIC", "setting": "[20]", "result": "> 100", "unit": "µg/mL"},
      {"measurement": "MIC", "setting": "[21]", "result": "> 100", "unit": "µg/mL"},
      {"measurement": "MIC", "setting": "[22]", "result": 0.39, "unit": "µg/mL"},
      {"measurement": "MIC", "setting": "[23]", "result": "> 100", "unit": "µg/mL"}
    ]}
  ]
}
